Experimental data as given in patent publication US7829552B2, “Phosphorus-containing thyromimetics” (Metabasis Therapeutics, Inc., priority 2003, dated 2010).
Blank lines part the entries; values can stand above or below the molecule they belong to.

Key:
[1] = tested on: Hypercholesterolemic rats; test: Cholesterol lowering in hypercholesterolemic (cholesterol-fed) rats; assay type: in vivo, rat; details: for cholesterol lowering: hypercholesterolemic rats, 0.5 mg/kg/d orally; for efficacy in lowering cholesterol: another experiment, dose and route not given
Experimental: Plasma cholesterol values were assessed prior to and following treatment and the effects of compound were expressed as a percentage change from the pre-dose cholesterol levels. […] Compounds were routinely tested for oral efficacy at a dose of 0.5 mg/kg/d. Hypercholesterolemic rats were treated with vehicle, Compound 13-1-cis (a HepDirect version of Compound 7), Compound 19-1 (a diethyl ester of Compound 19-2), Compound 13-9 (a HepDirect version of Compound 19-2), Compound 12-5 (a bisPom version of compound 19-2), or Compound 15-5 (a bisamidate version of Compound 19-2) at 0.5 mg/kg/d orally. Compound 13-1-cis has been extensively characterized and was used as the positive control for the assay.

cholesterol-fed rat [2] = test: Subacute studies in cholesterol-fed rats, IP once-a-day for seven days: serum cholesterol, heart weight, heart GPDH
Experimental: The cholesterol-fed rat is an animal model of hypercholesterolemia generated by feeding the animals a diet with high cholesterol content.
Serum cholesterol values were assessed and the animals randomized into groups for treatment.

Sprague Dawley (SD) rat = test: Cardiovascular activity of T3 mimetics in the Sprague Dawley rat, oral 7 days; assay type: in vivo; details: SD rats, p.o. 7 days, Compound 18 1 mg/kg, Compound cis-13-1 1-50 mg/kg/day
Source text: Method: […] The control group (n=6) was given vehicle only. […] On the 7th day after the start of dosing, animals were anesthetized with Isoflurane and the left ventricle cannulated with a high fidelity catheter tip transducer via the right carotid artery. Left ventricular pressure, its first derivative (LVdP/dt), lead I ECG, and heart rate (HR) triggered off the ECG waveform, were digitally recorded. LV dP/dt is a well accepted measure of ionotropic state. Systolic and diastolic aortic pressures were measured by retracting the catheter into the proximal aorta.

[3] = animals, e.g., rodent models and monkeys; cited from earlier work
cholesterol-fed rat [4] = details: cited from earlier work
[5] = molecular target: T1, human thyroid hormone receptors TRα1 (Homo sapiens, UniProt P10827); test: Receptor binding, scintillation proximity assay (SPA) with labeled T3; T3 binding also by gel filtration; details: SPA data; read-out: Ki TRα
T1 construct: made in house; host or cells: Sf9 insect cells (baculovirus co-infection of TR and RXRα), cell lysate
T1 sequence (P10827 1-410 isoform P10827-2): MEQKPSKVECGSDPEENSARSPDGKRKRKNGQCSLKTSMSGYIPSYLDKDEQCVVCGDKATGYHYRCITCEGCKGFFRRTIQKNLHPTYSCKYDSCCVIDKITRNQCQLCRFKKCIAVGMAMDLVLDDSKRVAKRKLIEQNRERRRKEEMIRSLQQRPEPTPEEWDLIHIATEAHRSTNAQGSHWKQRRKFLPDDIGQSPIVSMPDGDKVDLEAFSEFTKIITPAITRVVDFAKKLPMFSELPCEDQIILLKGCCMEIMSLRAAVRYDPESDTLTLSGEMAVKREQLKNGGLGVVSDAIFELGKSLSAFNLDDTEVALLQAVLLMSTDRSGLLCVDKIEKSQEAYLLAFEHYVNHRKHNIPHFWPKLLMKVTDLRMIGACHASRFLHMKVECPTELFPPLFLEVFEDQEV
T1 sequence (P19793 1-462 partner): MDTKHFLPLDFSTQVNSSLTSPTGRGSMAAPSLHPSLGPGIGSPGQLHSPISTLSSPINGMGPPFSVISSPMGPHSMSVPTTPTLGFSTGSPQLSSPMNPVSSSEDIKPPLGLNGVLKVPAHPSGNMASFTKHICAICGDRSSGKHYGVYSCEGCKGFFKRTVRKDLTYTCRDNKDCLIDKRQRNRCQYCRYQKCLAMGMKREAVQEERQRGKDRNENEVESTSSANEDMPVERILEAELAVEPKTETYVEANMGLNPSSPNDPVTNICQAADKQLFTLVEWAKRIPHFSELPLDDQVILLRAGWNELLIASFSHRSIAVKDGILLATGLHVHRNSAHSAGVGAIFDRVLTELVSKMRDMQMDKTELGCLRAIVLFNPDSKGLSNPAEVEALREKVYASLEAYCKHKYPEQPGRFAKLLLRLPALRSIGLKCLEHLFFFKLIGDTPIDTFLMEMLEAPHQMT
Experimental: (§1) Methods: Baculoviruses expressing TRα1, TRβ1 and RXRα were generated using cDNA and other reagents from Invitrogen (Carlsbad, Calif.). To produce TR/RXR heterodimer proteins, the sf9 insect cells were first grown to a density of 1−5×10^5 cells/mL. TRα1 or TRβ1 and RXRα baculovirus stocks were added to the cell culture with a ratio of 1 to 1 (multiplicity of infection=10). The cells were harvested three days after the infection.
(§2) Binding of compounds to either the TRα1 or TRβ1 were also performed by means of scintillation proximity assays (SPA). The SPA assay, a common method used for the quantitation of receptor-ligand equilibria, makes use of special beads coated with a scintillant and a capture molecule, copper, which binds to the histidine-tagged α or β receptor.

[6] = molecular target: T2, human thyroid hormone receptors TRβ1 (Homo sapiens, UniProt P10828); test: as above; details: SPA data; read-out: Ki TRβ
T2 construct: made in house; host or cells: Sf9 insect cells (baculovirus co-infection of TR and RXRα), cell lysate
T2 sequence (P10828 1-461): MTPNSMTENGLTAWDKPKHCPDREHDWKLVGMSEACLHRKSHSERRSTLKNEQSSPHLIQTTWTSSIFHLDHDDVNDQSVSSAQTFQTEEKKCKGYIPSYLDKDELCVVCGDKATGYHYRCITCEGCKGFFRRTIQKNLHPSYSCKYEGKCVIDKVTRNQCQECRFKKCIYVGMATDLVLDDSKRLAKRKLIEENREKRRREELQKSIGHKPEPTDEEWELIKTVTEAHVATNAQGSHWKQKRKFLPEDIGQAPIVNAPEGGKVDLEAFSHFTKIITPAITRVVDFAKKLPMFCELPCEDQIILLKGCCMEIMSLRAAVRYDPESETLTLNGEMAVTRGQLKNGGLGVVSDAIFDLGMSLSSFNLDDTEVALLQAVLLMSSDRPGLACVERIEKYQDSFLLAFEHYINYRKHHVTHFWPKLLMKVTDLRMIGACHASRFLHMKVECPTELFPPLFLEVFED
T2 sequence (P19793 1-462 partner): T1 sequence (P19793 1-462 partner)
Experimental: as §1, §2

[7] = tested on: Normal rats (Sprague-Dawley); test: Subacute studies in normal rats, continuous infusion by osmotic pump: liver/heart mGPDH activity, heart weight; assay type: in vivo, rat; details: continuous infusion 1 mg/kg/day
Source text: Efficacy endpoints include serum cholesterol, liver mitochondrial glycerol phosphate dehydrogenase (mGPDH) activity and the expression of relevant liver genes (e.g., the LDL-receptor, apoB, cpt-1, spot14 and apoAI). Safety parameters include heart weight, heart rate, heart mGPDH activity, the expression and key genes involved in cardiac structure and function (e.g., Serca2, HCN2, Kv1.5, MHCα, MHCβ, Alpha1c), and standard plasma chemistry analysis (liver enzymes, electrolytes, creatinine). Endocrine effects are monitored by analysis of serum thyroid stimulating hormone (TSH). [Taylor et al., Mol Pharmacol 52(3): 542-7 (1997); Weitzel et al., Eur Biochem 268(14):4095-4103 (2001)]
Methods: mGPDH activity was analyzed in isolated mitochondria using 2-(4-iodophenyl)-3-(4-nitrophenyl)-5-phenyl tetrazolium chloride as the terminal electron acceptor (Gardner R S, Analytical Biochemistry 59:272 (1974)). Commercially available GPDH was used in each assay as a standard (Sigma, St. Louis, Mo.). Changes in levels of mRNA for liver and heart genes are analyzed using reverse transcriptase followed by real-time PCR analysis. The analysis is performed using an iCycler instrument (Biorad) and appropriate primers by means of standard methodology [e.g., Schwab D A et al. (2000) Life Sciences 66: 1683-94]. The amounts of mRNA are normalized to an internal control, typically, cyclophilin. Serum TSH is measured using an enzyme immunoassay (EIA) kit designed for rat TSH (Amersham Pharmacia Biotech, Arlington Heights, Ill.).
Normal rats (Sprague-Dawley) were maintained on a standard diet. […] The compounds were brought up to an appropriate volume using PBS and BSA to maintain solubility within the pump. The compounds were chemically stable in the excipient at 37° C. for 7 days.
Values are expressed as percent of control. (Table 4)

Normal rats = test: Hepatic triglyceride content in normal rats chronically infused for 7 days; assay type: in vivo, rat
Experimental: Normal rats were chronically infused with Compound 7 for 7 days. Liver triglycerides were analyzed following lipid extraction by the Bligh Dyer method (Bligh E G and Dyer W J, A rapid method of total lipid extraction and purification. Can J Med. Sci. 1959 (August); 37(8):911-7, incorporated herein by reference). Total triglycerides were analyzed in the liver extracts by an enzymatic assay (Thermo Electron Corporation). Total lipid was normalized to initial liver weight and triglyceride content was normalized to liver weight. […] There was a 4% reduction in liver triglycerides for this group and the results were not statistically significant.

Structure (SMILES): CC(C)c1cc(Oc2c(Br)cc(CP(=O)(OCOC(=O)C(C)(C)C)OCOC(=O)C(C)(C)C)cc2Br)ccc1O [Compound 12-5, Di-(pivaloyloxymethyl)[3,5-dibromo-4-(4′-hydroxy-3′-iso-propylphenoxy)benzyl]phosphonate]
cholesterol lowering [1]: significant lowering of cholesterol

Structure (SMILES): CC(C)c1cc(Oc2c(Cl)c(F)nc(NCP(=O)(OCOC(=O)C(C)(C)C)OCOC(=O)C(C)(C)C)c2Cl)ccc1O [Compound 12-9]
efficacy in lowering cholesterol [1]: not efficiacous

Structure (SMILES): Cc1cc(OC[P@@]2(=O)OCC[C@@H](c3cccc(Br)c3)O2)cc(C)c1Cc1ccc(O)c(C(C)C)c1 [Compound 13-2-cis, 2-[(3,5-dimethyl-4-(4′-hydroxy-3′-iso-propylbenzyl)phenoxy)methyl]-4-(3-bromophenyl)-2-oxo-2λ^5-[1,3,2]-dioxaphosphonane]
efficacy in lowering cholesterol [1]: not efficiacous

Structure (SMILES): CCOC(=O)[C@H](C)NP(=O)(Cc1cc(Br)c(Oc2ccc(O)c(C(C)C)c2)c(Br)c1)N[C@@H](C)C(=O)OCC [Compound 15-5, Di-N-(L-1-ethoxycarbonylethylamino)[3,5-dibromo-4-(4′-hydroxy-3′-iso-propylphenoxy)benzyl]phosphonamide]
cholesterol lowering [1]: significant lowering of cholesterol

Structure (SMILES): Cc1cc(OCC(=O)O)cc(C)c1Cc1ccc(O)c(C(C)C)c1 [Compound 17, [3,5-dimethyl-4-(4′-hydroxy-3′-iso-propylbenzyl)phenoxy]acetic Acid]
serum cholesterol (cholesterol-fed rat [2]; 0.1-1 mg/kg/day, IP once-a-day for seven days): significantly decreased serum cholesterol
therapeutic window (separation between cholesterol lowering and cardiac toxicity) (cholesterol-fed rat [2]; cholesterol-fed rats): no separation between efficacy (cholesterol lowering) and toxicity
cardiac hypertrophy (cholesterol-fed rat [2]; cholesterol-fed rats, IP seven days, Compound 17 0.1-1 mg/kg/day, Compound 7 all doses): Undesirable cardiac hypertrophy was observed

Structure (SMILES): CC(C)c1cc(Oc2c(Cl)cc(CC(=O)O)cc2Cl)ccc1O [Compound 18, 3,5-dichloro-4-[4′-hydroxy-3′-iso-propylphenoxy]benzeneacetic Acid, reference compound]
Heart weight (Sprague Dawley (SD) rat; vs control): significantly increased
heart weight normalized to body weight (Sprague Dawley (SD) rat; vs control): significantly increased
HR (Sprague Dawley (SD) rat; vs vehicle): marked and statistically significant increases
LV dP/dt (Sprague Dawley (SD) rat; vs vehicle): marked and statistically significant increases
systolic aortic pressure (Sprague Dawley (SD) rat; vs vehicle): marked and statistically significant increases
weight loss [3]: result in weight loss in animals
therapeutic index (TI) with respect to heart rate increases (cholesterol-fed rat [4]): 40

Structure (SMILES): CCOP(=O)(Cc1cc(Br)c(Oc2ccc(O)c(C(C)C)c2)c(Br)c1)OCC [Compound 19-1]
change in vivo at 0.5 mg/kg/day ([1]; Rattus norvegicus, po, read-out: % Cholesterol Lowering): -6.56%

Ki [5]: > 2000 nM
Ki [6]: > 2000 nM
Structure (SMILES): Cc1cc(CCP(=O)(O)O)cc(C)c1Cc1ccc(F)c(C(C)C)c1 [Compound 42-2]

Heart GPDH [7]: 284% of control
Heart weight [7]: 146% of control
Structure (SMILES): N[C@@H](Cc1cc(I)c(Oc2ccc(O)c(I)c2)c(I)c1)C(=O)O [Compound T3, triiodothyronine]
Liver GPDH [7]: 406% of control
decrease in hepatic triglyceride content (Normal rats): 4%
